A short description of the first data set: solvent given as SMILES. As to conditions: in C1CCCCC1.
In the case of `N#Cc1cc2ccc(O)cc2oc1=O`, the emission maximum amounted to 411 nm.
Same read-out and setting: the figure for `CCN1/C(=C\c2c(-c3ccc(N(C)C)cc3)c(=O)c2=O)C=Cc2ccccc21` is 427 nm.
On the same count and under the same terms, the figure for `CN(C)c1ccc(-c2nc(C#N)c(C#N)n2C)cc1` is 375 nm; for `Cc1ccc(-c2ccccc2)cc1` it is 333.89 nm.
On the same count and under the same terms, for `CC(C)[Si]1(C(C)C)c2cc(C#N)ccc2-c2ccc(N(C)C)cc21` the value was 410 nm; for `CCC1(CC)c2cc(C=O)ccc2-c2ccc(N(C)C)cc21`, 416 nm.
`C[Si](C)(C)c1ccc([Si](C)(C)C)c2ccccc12` gave an emission maximum of 333 nm.
`O=C1c2ccccc2-c2ccccc21` yielded an emission maximum of 463 nm.
On the same count and under the same terms, for `C(=C\c1ncc2ccccc2n1)/c1ccc(N(c2ccccc2)c2ccccc2)cc1` the value was 449 nm.

Staying with this data set, now noted: in C1CCOC1.
Regarding `N#Cc1cc2ccc(O)cc2oc1=O`, the emission maximum is 405 nm.
In the case of `c1ccc(-c2cc(-c3ccccc3)cc(-c3ccc4c(c3)C3(c5ccccc5-4)c4ccccc4-c4c3c3c5ccccc5c(-c5cc(-c6ccccc6)cc(-c6ccccc6)c5)cc3c3ccccc43)c2)cc1` (stereo unspecified), the emission maximum came out at 440 nm.
Still for that read-out and setting: for `COc1cc(/C=C/c2nc3ccccc3s2)c(OC)cc1/C=C/c1nc(C)nc(C)n1` the value was 488 nm; for `CCc1c(C)c2n(c1C)[B-](F)(F)[N+]1=C(c3ccc[nH]3)c3ccccc3C1=C2`, 631 nm; for `CC(C)c1cc(C(C)C)c(B2c3cc(-n4c5ccccc5c5ccccc54)ccc3N(c3ccccc3)c3ccc(-n4c5ccccc5c5ccccc54)cc32)c(C(C)C)c1`, 442.52 nm.
The same measure, in the same setting: for `C(=C\c1ncc2ccccc2n1)/c1ccc(N(c2ccccc2)c2ccccc2)cc1` the value was 498 nm; for `CCN(CC)c1ccc(-c2nc3c(c4c2-c2ccccc2CC4)-c2ccccc2CC3)cc1`, 452 nm.
On the same count and under the same terms, for `Cc1cc(=O)c2ccc(N)cc2o1` the value was 382 nm.

The data set is the same for the next values; noted with them: in C1COCCO1.
For the molecule `COC(=O)c1nc2c(N(C)C)nc(N)nc2n1Cc1ccccc1`, the emission maximum came out at 391 nm.
Still for that read-out and setting: for `Cc1cc(=O)c2ccc(N)cc2o1` the value was 378 nm.

The data set is the same for the next values; noted with them: in CC1CCCO1.
Turning to `O=c1cc2c(S(=O)(=O)O)c(O)c3cccc4ccc(o1)c2c43`, the emission maximum stood at 472 nm.

Still in this data set, the particulars now being: in CC#N.
The molecule `N#Cc1cc2ccc(O)cc2oc1=O` had an emission maximum of 402 nm.
The same measure, in the same setting: the figure for `COC(=O)c1nc2c(N(C)C)nc(N)nc2n1Cc1ccccc1` is 399 nm.
Same read-out and setting: the figure for `CN(C)c1ccc(-c2nc(C#N)c(C#N)n2C)cc1` is 519 nm.
Molecule `CC(C)[Si]1(C(C)C)c2cc(C#N)ccc2-c2ccc(N(C)C)cc21` displayed an emission maximum of 464 nm.
`COc1cc(/C=C/c2nc3ccccc3s2)c(OC)cc1/C=C/c1nc(C)nc(C)n1`: the emission maximum was found to be 499 nm.
The same measure, in the same setting: for `Cc1cc(=O)oc2cc3cc(O)ccc3cc12` the value was 450 nm.
Molecule `O=C1CCCC2=C1CC1=C(CCCC1=O)N2NC(=O)c1ccc(O)cc1` yielded an emission maximum of 434 nm.
Still for that read-out and setting: for `CCc1c(C)c2n(c1C)[B-](F)(F)[N+]1=C(c3ccc[nH]3)c3ccccc3C1=C2` the value was 628 nm; for `CCC1(CC)c2cc(C=O)ccc2-c2ccc(N(C)C)cc21`, 521 nm; for `O=C1c2ccccc2-c2ccccc21`, 507 nm.
In turn, `COc1ccc(-c2c3ccccc3c3n2[B-](F)(F)[N+]2=Cc4c5ccccc5c(-c5ccc(OC)cc5)n4[B-](F)(F)[N+]2=C3)cc1` had an emission maximum of 606 nm.
Regarding `C(=C\c1ncc2ccccc2n1)/c1ccc(N(c2ccccc2)c2ccccc2)cc1`, the emission maximum was determined as 543 nm.
On the same count and under the same terms, for `CCN(CC)c1ccc(-c2nc3c(c4c2-c2ccccc2CC4)-c2ccccc2CC3)cc1` the value was 463 nm; for `Cc1cc(=O)c2ccc(N)cc2o1`, 388 nm.

Still in this data set, the particulars now being: in CC(C)=O.
On to `O=C1CCCC2=C1CC1=C(CCCC1=O)N2NC(=O)c1ccc(O)cc1`, for which the emission maximum came to 432 nm.

The same data set, now with this note: in CC(C)O.
Turning to `Cc1cc(=O)c2ccc(N)cc2o1`, the emission maximum stood at 418 nm.

The same data set, now with this note: in CCCCCC.
As to `CCc1c(C)c2n(c1C)[B-](F)(F)[N+]1=C(c3ccc[nH]3)c3ccccc3C1=C2`, the emission maximum worked out at 626 nm.
The same measure, in the same setting: for `COc1ccc(-c2c3ccccc3c3n2[B-](F)(F)[N+]2=Cc4c5ccccc5c(-c5ccc(OC)cc5)n4[B-](F)(F)[N+]2=C3)cc1` the value was 607 nm; for `CCN(CC)c1ccc(-c2nc3c(c4c2-c2ccccc2CC4)-c2ccccc2CC3)cc1`, 425 nm.

The data set is the same for the next values; noted with them: in CCCCCO.
For `O=C1CCCC2=C1CC1=C(CCCC1=O)N2NC(=O)c1ccc(O)cc1`, the emission maximum worked out at 447 nm.

Still in this data set, the particulars now being: in CCCCO.
In the case of `Cc1cc(=O)c2ccc(N)cc2o1`, the emission maximum stood at 417 nm.

The data set is the same for the next values; noted with them: in CCCO.
Regarding `Cc1cc(=O)c2ccc(N)cc2o1`, the emission maximum is on record as 416 nm.

Still in this data set, the particulars now being: in CCO.
Molecule `CC(C)[Si]1(C(C)C)c2cc(C#N)ccc2-c2ccc(N(C)C)cc21` returned an emission maximum of 456 nm.
Consider `COC(=O)C(NC(=O)CCNc1cccc2ccccc12)C(C)C` (stereo unspecified), for which the emission maximum came out at 415 nm.
Still for that read-out and setting: for `Cc1cc(=O)oc2cc3cc(O)ccc3cc12` the value was 466 nm; for `CC1(C)Nc2cc3nc4cc(Br)c(Br)cc4nc3cc2N1`, 508 nm.
Still for that read-out and setting: for `CCC1(CC)c2cc(C=O)ccc2-c2ccc(N(C)C)cc21` the value was 562 nm; for `O=C1c2ccccc2-c2ccccc21`, 553 nm; for `CN(C)c1ccc2c(-c3ccc(C(=O)[O-])cc3C(=O)[O-])c3ccc(=[N+](C)C)cc-3oc2c1`, 569 nm.

The same data set, now with this note: in CCOC(C)=O.
Consider `N#Cc1cc2ccc(O)cc2oc1=O`, for which the emission maximum stood at 406 nm.
The molecule `CC(C)c1cc(C(C)C)c(B2c3cc(-n4c5ccccc5c5ccccc54)ccc3N(c3ccccc3)c3ccc(-n4c5ccccc5c5ccccc54)cc32)c(C(C)C)c1` returned an emission maximum of 442.52 nm.
On the same count and under the same terms, for `CCN(CC)c1ccc(-c2nc3c(c4c2-c2ccccc2CC4)-c2ccccc2CC3)cc1` the value was 449 nm; for `Cc1cc(=O)c2ccc(N)cc2o1`, 378 nm.

The same data set, now with this note: in CCOCC.
The molecule `CC(C)[Si]1(C(C)C)c2cc(C#N)ccc2-c2ccc(N(C)C)cc21` showed an emission maximum of 423 nm.
In turn, `CCC1(CC)c2cc(C=O)ccc2-c2ccc(N(C)C)cc21` had an emission maximum of 436 nm.

The same data set, now with this note: in CN(C)C=O.
`CCCCCCCCCCCCN1C(=O)c2ccc3c4ccc5c6c(ccc(c7ccc(c2c37)C1=O)c64)C(=O)NC5=O` registered an emission maximum of 535 nm.
Still for that read-out and setting: the figure for `COc1ccc(-c2c3ccccc3c3n2[B-](F)(F)[N+]2=Cc4c5ccccc5c(-c5ccc(OC)cc5)n4[B-](F)(F)[N+]2=C3)cc1` is 613 nm; for `Cc1cc(=O)c2ccc(N)cc2o1` it is 408 nm.

Still in this data set, the particulars now being: in CO.
Take `COC(=O)c1nc2c(N(C)C)nc(N)nc2n1Cc1ccccc1`: the emission maximum was determined as 420 nm.
The same measure, in the same setting: the figure for `CN(C)c1ccc(-c2nc(C#N)c(C#N)n2C)cc1` is 427 nm; for `O=C(O)C1=C/C(=C/C=[N+]2/c3cc(O)c(C[C@@H]4O[C@H](CO)[C@@H](O)C(O)[C@H]4O)cc3C[C@H]2C(=O)O)C[C@H](C(=O)O)N1` (stereo partly specified) it is 611 nm.

For the origin of these results see the Deep4Chem optical property database.
